The test system of the first experiment is MAPK14 (sprague-dawley rat). Nature of the experiment: Inhibition of LPS Induced TNF-alpha Production in Rats. The settings on record: dose or concentration not given here.
In general, inhibition refers to the percentage by which the read-out fell short of the control. Low readings indicate a response near the control, high ones a response far below the control. Turning to `NC(=NO)c1cccc(C(=O)c2cnn(-c3ccc(F)cc3)c2N)c1`, the inhibition worked out at 76%.
Consider `CN1CCN(CC#Cc2cccc(C(=O)c3cnn(-c4ccc(F)cc4)c3N)c2)CC1`, for which the inhibition stood at 86%.
As to `CNCC#Cc1cccc(C(=O)c2cnn(-c3ccc(F)cc3)c2N)c1`, the inhibition is 86%.
As for `CNC(=O)COc1cccc(C(=O)c2cnn(-c3ccc(F)cc3)c2N)c1`, the inhibition was 75%.
Still for that read-out and setting: next, `Nc1c(C(=O)c2cccc(C#CCN3CCOCC3)c2)cnn1-c1ccc(F)cc1`: 96%.

For another experiment, the target named is MAPK14 (human) (UniProt Q16539). Briefly: Inhibition of LPS-Induced TNF-a Production in THP1 Cells.
Chain of MAPK14 (human) (Q16539 whole entry, looked up): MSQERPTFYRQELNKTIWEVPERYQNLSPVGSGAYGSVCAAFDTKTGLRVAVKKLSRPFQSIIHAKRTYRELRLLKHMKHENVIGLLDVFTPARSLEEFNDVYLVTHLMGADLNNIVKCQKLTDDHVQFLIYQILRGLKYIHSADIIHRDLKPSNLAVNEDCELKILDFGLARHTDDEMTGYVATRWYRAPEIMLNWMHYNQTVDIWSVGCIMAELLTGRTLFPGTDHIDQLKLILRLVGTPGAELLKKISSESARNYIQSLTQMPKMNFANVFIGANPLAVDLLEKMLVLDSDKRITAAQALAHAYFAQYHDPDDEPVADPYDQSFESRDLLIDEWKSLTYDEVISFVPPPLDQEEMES
Conditions: not given
Broadly, the IC50 is the concentration at which inhibition is half-maximal. High values mean a need for much substance, low ones inhibition by little substance. The molecule `NC(=NO)c1cccc(C(=O)c2cnn(-c3ccc(F)cc3)c2N)c1` came in with an IC50 of 170 nM.
On the same count and under the same terms, next, `Nc1c(C(=O)c2cccc(CCS(N)(=O)=O)c2)cnn1-c1ccc(F)cc1`: 510 nM.
As for `N#CCCCOc1cccc(C(=O)c2cnn(-c3ccc(F)cc3)c2N)c1`, the IC50 stood at 830 nM.
Same read-out and setting: next, `Nc1cccc(C(=O)c2cnn(-c3ccc(F)cc3)c2N)c1`: 170 nM.
Still for that read-out and setting: the same measure for `CN1CCN(C(=O)COc2cccc(C(=O)c3cnn(-c4ccc(F)cc4)c3N)c2)CC1`: 690 nM; for `Nc1c(C(=O)c2cccc(N3CCC(Cc4ccccc4)CC3)c2)cnn1-c1ccc(F)cc1`: 140 nM; for `Nc1c(C(=O)c2ccc(/C=C/CN3CCOCC3)cc2)cnn1-c1ccc(F)cc1`: 6300 nM.
Same read-out and setting: next, `Nc1c(C(=O)c2cccc(CCCN3CCOCC3)c2)cnn1-c1ccc(F)cc1`: 1040 nM; `Nc1c(C(=O)c2ccc(CCCO)cc2)cnn1-c1ccccc1`: 1770 nM.
As for `Nc1c(C(=O)c2cccc(/C=C/S(N)(=O)=O)c2)cnn1-c1ccc(F)cc1`, the 50% inhibitory concentration (IC50) was 1620 nM.
The same measure, in the same setting: the same measure for `Nc1c(C(=O)c2cccc(OCCCN3CCCCC3)c2)cnn1-c1ccc(F)cc1`: 610 nM; for `Nc1c(C(=O)c2cccc(/C=C/CN3CCOCC3)c2)cnn1-c1ccc(F)cc1`: 1260 nM; for `Nc1c(C(=O)c2cccc(OCCN3CCOCC3)c2)cnn1-c1ccc(F)cc1`: 770 nM.

For a further experiment, the target named is MAPK14 (UniProt Q16539). Briefly: p-38 Kinase Inhibition Assay.
Chain of MAPK14 (Q16539 whole entry, looked up): as above
Conditions: not given
On to `NC(=NO)c1cccc(C(=O)c2cnn(-c3ccc(F)cc3)c2N)c1`, for which the IC50 amounted to 1450 nM.

(Values after the Kinase Knowledgebase extract (Sharma et al. 2016).)
